{"source": "ChEMBL document CHEMBL5346903", "about": "“Discovery of novel and bioavailable histone deacetylases and cyclin-dependent kinases dual inhibitor to impair the stemness of leukemia cells” (Eur J Med Chem, 2023)", "key": {"U-937 [1]": {"tested_on": "U-937", "experiment": "Inhibition of colony formation in human U-937 cells treated for 15 days by soft agar assay", "assay_type": "functional, cell-based", "settings": "time 15.0 day"}, "HL-60 [2]": {"tested_on": "HL-60", "experiment": "Induction of apoptosis in human HL-60 cells assessed as early apoptotic cells at 5 uM incubated for 48 hrs by annexin V-FITC/PI satining based flow cytometry (reference value: 2.4 %)", "assay_type": "functional"}, "U-937 [3]": {"tested_on": "U-937", "experiment": "Induction of differentiation in human U-937 cells assessed as increase in CD11b positive cells at 5 uM incubated for 48 hrs by FITC staining based flow cytometry (reference value: […] %)", "assay_type": "functional"}, "HL-60 [4]": {"tested_on": "HL-60", "experiment": "Induction of apoptosis in human HL-60 cells assessed as viable cells at 1.2 uM incubated for 48 hrs by annexin V-FITC/PI satining based flow cytometry (reference value: 94.7 %)", "assay_type": "functional", "settings": "read-out: Activity"}, "HL-60 [5]": {"tested_on": "HL-60", "experiment": "Induction of apoptosis in human HL-60 cells assessed as early apoptotic cells at 1.2 uM incubated for 48 hrs by annexin V-FITC/PI satining based flow cytometry (reference value: 2.4 %)", "assay_type": "functional"}, "Kasumi 1": {"tested_on": "Kasumi 1", "experiment": "Antiproliferative activity against human Kasumi 1 cells incubated for 72 hrs by CCK8 assay", "assay_type": "functional, cell-based", "settings": "Kasumi 1, 72 h"}, "U-937 [6]": {"tested_on": "U-937", "experiment": "Induction of apoptosis in human U-937 cells assessed as early apoptotic cells at 2.5 uM incubated for 48 hrs by annexin V-FITC/PI satining based flow cytometry (reference value: 1.93 %)", "assay_type": "functional"}, "[7]": {"experiment": "Cytotoxicity against human Kasumi 1 cells assessed as CD34positive CD38negative leukemic stem cell-like cells sub-population at 2 uM incubated for 24 hrs by APC/FITC satining based flow cytometry (reference value: 95.8 %)", "assay_type": "functional"}, "U-937 [8]": {"tested_on": "U-937", "experiment": "Induction of apoptosis in human U-937 cells assessed as early apoptotic cells at 0.6 uM incubated for 48 hrs by annexin V-FITC/PI satining based flow cytometry (reference value: 1.93 %)", "assay_type": "functional"}, "HL-60 [9]": {"tested_on": "HL-60", "experiment": "Induction of differentiation in human HL-60 cells assessed as increase in CD11b positive cells at 2.5 uM incubated for 24 hrs by FITC staining based flow cytometry (reference value: 1.12 %)", "assay_type": "functional"}, "U-937 [10]": {"tested_on": "U-937", "experiment": "Antiproliferative activity against human U-937 cells incubated for 72 hrs by CCK8 assay", "assay_type": "functional, cell-based", "settings": "U-937, 72 h"}, "HL-60 [11]": {"tested_on": "HL-60", "experiment": "Inhibition of colony formation in human HL-60 cells treated for 15 days by soft agar assay", "assay_type": "functional, cell-based", "settings": "time 15.0 day"}, "HL-60 [12]": {"tested_on": "HL-60", "experiment": "Antiproliferative activity against human HL-60 cells incubated for 72 hrs by CCK8 assay", "assay_type": "functional, cell-based", "settings": "HL-60, 72 h"}, "[13]": {"experiment": "Antiproliferative activity against human SKNO-1 cells incubated for 72 hrs by CCK8 assay", "assay_type": "functional, cell-based", "settings": "SKNO-1, 72 h"}, "[14]": {"biological_target": "CDK1/Cyclin A (Homo sapiens) (UniProt P06493+P20248)", "sequence (P06493 whole entry, looked up)": "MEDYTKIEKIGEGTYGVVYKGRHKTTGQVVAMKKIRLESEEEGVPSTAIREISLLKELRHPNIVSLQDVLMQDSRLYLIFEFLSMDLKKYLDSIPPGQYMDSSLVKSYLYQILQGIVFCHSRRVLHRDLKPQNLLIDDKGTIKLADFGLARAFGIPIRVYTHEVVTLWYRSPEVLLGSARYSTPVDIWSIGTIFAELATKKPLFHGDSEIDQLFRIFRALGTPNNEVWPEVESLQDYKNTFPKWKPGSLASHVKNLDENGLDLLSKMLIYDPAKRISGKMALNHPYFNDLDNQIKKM", "sequence (P20248 whole entry, looked up)": "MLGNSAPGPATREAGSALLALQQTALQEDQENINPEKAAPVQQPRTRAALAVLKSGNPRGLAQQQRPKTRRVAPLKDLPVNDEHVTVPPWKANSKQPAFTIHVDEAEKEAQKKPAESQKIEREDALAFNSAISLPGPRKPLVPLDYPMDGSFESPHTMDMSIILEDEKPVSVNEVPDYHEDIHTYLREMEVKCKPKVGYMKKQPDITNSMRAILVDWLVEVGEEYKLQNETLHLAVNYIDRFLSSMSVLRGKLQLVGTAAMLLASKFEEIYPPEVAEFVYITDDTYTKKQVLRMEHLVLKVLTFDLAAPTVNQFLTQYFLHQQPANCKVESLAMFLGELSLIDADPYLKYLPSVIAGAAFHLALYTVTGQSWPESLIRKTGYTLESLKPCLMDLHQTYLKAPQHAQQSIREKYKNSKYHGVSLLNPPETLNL", "experiment": "Inhibition of CDK1/cyclinA2 (unknown origin) at 100 nM preincubated for 20 mins followed by [gamma-33P]ATP addition measured after 120 mins in presence of ATP by Hot-SpotSM kinase assay relative to control", "assay_type": "protein-complex assay", "settings": "time 140.0 min"}, "[15]": {"biological_target": "Cyclin-dependent kinase 4/cyclin D1 (Homo sapiens) (UniProt P11802+P24385)", "experiment": "Inhibition of CDK4/cyclinD1 (unknown origin) at 100 nM preincubated for 20 mins followed by [gamma-33P]ATP addition measured after 120 mins in presence of ATP by Hot-SpotSM kinase assay relative to control", "assay_type": "protein-complex assay", "settings": "time 140.0 min"}, "HL-60 [16]": {"tested_on": "HL-60", "experiment": "Downregulation of Pol-II S5 level in human HL-60 cells incubated for 6 hrs by Western blot analysis", "assay_type": "functional, cell-based", "settings": "dose <= 1000.0 nM"}, "[17]": {"biological_target": "CDK4/Cyclin D3 (Homo sapiens) (UniProt P11802+P30281)", "experiment": "Inhibition of CDK4/cyclinD3 (unknown origin) at 100 nM preincubated for 20 mins followed by [gamma-33P]ATP addition measured after 120 mins in presence of ATP by Hot-SpotSM kinase assay relative to control", "assay_type": "protein-complex assay", "settings": "time 140.0 min"}, "U-937 [18]": {"tested_on": "U-937", "experiment": "Induction of apoptosis in human U-937 cells assessed as late apoptotic cells at 2 uM incubated for 48 hrs by annexin V-FITC/PI satining based flow cytometry (reference value: 7.10 %)", "assay_type": "functional"}, "U-937 [19]": {"tested_on": "U-937", "experiment": "Induction of apoptosis in human U-937 cells assessed as viable cells at 2 uM incubated for 48 hrs by annexin V-FITC/PI satining based flow cytometry (reference value: 90.0 %)", "assay_type": "functional", "settings": "read-out: Activity"}, "U-937 [20]": {"tested_on": "U-937", "experiment": "Induction of apoptosis in human U-937 cells assessed as necrotic cells at 0.2 uM incubated for 48 hrs by annexin V-FITC/PI satining based flow cytometry (reference value: 1.96 %)", "assay_type": "functional"}, "[21]": {"experiment": "Clearance in Sprague-Dawley rat at 25 mg/kg, po measured upto 8 hrs by LC/MS-MS analysis", "assay_type": "ADME, organism-based", "settings": "in vivo"}, "[22]": {"biological_target": "Cyclin-dependent kinase 13/Cyclin-K (Homo sapiens) (UniProt Q14004+O75909)", "sequence (O75909 whole entry, looked up)": "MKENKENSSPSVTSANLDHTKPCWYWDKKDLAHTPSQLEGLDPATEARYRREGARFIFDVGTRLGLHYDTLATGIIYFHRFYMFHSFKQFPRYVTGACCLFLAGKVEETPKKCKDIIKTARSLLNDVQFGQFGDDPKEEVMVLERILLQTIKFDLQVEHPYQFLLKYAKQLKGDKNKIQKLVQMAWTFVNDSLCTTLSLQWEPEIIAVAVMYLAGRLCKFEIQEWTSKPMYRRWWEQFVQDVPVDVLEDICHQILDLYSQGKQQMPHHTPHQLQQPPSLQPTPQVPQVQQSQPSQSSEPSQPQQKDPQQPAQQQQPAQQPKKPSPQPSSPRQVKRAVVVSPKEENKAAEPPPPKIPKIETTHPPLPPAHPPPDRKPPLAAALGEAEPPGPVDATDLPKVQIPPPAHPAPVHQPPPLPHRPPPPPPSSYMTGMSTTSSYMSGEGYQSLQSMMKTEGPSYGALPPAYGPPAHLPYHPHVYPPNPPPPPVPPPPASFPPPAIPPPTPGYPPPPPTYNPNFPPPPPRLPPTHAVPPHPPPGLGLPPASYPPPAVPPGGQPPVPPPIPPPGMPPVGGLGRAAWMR", "sequence (Q14004 whole entry, looked up)": "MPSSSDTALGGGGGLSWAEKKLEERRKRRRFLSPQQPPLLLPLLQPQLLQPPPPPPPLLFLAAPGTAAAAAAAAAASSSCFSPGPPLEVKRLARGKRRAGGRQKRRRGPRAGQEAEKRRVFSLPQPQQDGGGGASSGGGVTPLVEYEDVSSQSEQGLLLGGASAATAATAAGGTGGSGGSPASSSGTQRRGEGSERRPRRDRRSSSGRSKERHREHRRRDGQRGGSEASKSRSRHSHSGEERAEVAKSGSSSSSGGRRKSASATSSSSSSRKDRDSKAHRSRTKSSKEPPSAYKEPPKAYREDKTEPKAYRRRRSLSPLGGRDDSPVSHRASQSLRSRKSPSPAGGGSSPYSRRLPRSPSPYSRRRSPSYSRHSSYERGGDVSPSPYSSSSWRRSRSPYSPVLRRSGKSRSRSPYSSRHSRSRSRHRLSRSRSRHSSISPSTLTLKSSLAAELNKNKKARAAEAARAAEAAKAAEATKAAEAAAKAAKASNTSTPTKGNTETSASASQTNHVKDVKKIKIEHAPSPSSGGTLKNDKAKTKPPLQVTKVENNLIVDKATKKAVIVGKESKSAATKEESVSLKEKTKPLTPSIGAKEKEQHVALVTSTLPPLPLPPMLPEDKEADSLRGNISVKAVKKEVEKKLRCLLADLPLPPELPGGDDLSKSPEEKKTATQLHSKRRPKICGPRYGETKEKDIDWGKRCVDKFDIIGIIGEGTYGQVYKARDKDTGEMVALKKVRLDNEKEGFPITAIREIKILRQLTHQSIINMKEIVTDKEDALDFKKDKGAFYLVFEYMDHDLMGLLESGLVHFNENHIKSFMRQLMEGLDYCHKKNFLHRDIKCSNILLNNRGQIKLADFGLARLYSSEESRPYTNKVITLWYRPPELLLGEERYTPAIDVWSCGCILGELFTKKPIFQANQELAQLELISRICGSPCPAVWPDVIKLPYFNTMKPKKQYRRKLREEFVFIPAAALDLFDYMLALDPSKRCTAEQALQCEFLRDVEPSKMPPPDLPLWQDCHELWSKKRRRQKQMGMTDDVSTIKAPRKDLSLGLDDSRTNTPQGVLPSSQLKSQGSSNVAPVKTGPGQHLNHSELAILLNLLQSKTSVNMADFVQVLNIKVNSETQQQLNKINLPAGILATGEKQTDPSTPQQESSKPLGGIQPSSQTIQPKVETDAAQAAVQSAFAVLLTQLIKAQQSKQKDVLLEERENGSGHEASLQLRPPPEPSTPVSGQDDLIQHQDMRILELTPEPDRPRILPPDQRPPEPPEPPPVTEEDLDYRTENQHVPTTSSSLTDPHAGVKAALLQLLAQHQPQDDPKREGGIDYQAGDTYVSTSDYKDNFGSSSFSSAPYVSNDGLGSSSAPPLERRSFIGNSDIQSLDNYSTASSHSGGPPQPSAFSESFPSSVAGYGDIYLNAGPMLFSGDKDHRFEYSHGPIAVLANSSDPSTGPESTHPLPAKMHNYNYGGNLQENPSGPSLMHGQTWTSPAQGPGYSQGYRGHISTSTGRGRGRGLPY", "experiment": "Inhibition of CDK13/cyclinK (unknown origin) at 100 nM preincubated for 20 mins followed by [gamma-33P]ATP addition measured after 120 mins in presence of ATP by Hot-SpotSM kinase assay relative to control", "assay_type": "protein-complex assay", "settings": "time 140.0 min"}, "[23]": {"biological_target": "Histone deacetylase (Homo sapiens) (UniProt Q13547+O15379+Q9UBN7+Q92769+Q9UQL6+Q8WUI4+Q9BY41+Q96DB2+P56524+Q9UKV0+Q969S8)", "experiment": "Inhibition of HDAC in human nuclear extract using Ac-Arg-Gly-Lys(Ac)-AMC as substrate at 1 uM incubated overnight by fluorescence based assay relative to control", "assay_type": "subcellular", "settings": "HeLa, Nucleus"}, "U-937 [24]": {"tested_on": "U-937", "experiment": "Induction of differentiation in human U-937 cells assessed as increase in CD11b positive cells at 1.5 uM incubated for 48 hrs by FITC staining based flow cytometry (reference value: 2.72 %)", "assay_type": "functional"}, "HL-60 [25]": {"tested_on": "HL-60", "experiment": "Induction of differentiation in human HL-60 cells assessed as increase in CD11b positive cells at 2 uM incubated for 24 hrs by FITC staining based flow cytometry (reference value: 1.45 %)", "assay_type": "functional"}, "[26]": {"biological_target": "CDK1/Cyclin E (Homo sapiens) (UniProt P06493+P24864)", "sequence (P06493 whole entry, looked up)": "as the sequence (P06493 whole entry, looked up) above", "sequence (P24864 whole entry, looked up)": "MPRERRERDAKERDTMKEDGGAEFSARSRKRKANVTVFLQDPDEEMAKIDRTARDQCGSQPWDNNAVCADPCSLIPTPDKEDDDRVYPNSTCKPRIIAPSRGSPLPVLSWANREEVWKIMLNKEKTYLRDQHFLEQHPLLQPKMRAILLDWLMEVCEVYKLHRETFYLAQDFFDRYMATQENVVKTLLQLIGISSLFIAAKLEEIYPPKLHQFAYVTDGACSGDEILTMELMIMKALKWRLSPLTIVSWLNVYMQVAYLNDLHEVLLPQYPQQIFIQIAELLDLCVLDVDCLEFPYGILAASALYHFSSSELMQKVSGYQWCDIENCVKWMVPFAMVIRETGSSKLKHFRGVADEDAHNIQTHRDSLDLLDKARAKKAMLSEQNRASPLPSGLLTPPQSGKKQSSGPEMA", "experiment": "Inhibition of CDK1/cyclinE1 (unknown origin) at 100 nM preincubated for 20 mins followed by [gamma-33P]ATP addition measured after 120 mins in presence of ATP by Hot-SpotSM kinase assay relative to control", "assay_type": "protein-complex assay", "settings": "time 140.0 min"}, "[27]": {"experiment": "Tmax in Sprague-Dawley rat at 25 mg/kg, po measured upto 8 hrs by LC/MS-MS analysis", "assay_type": "ADME, organism-based", "settings": "in vivo"}, "[28]": {"biological_target": "Cyclin-Y/Cyclin-dependent kinase 16 (Homo sapiens) (UniProt Q00536+Q8ND76)", "settings": "dose 100.0 nM, time 140.0 min"}, "[29]": {"biological_target": "Cyclin-dependent kinase 5/CDK5 activator 1 (Homo sapiens) (UniProt Q00535+Q15078)", "sequence (Q00535 whole entry)": "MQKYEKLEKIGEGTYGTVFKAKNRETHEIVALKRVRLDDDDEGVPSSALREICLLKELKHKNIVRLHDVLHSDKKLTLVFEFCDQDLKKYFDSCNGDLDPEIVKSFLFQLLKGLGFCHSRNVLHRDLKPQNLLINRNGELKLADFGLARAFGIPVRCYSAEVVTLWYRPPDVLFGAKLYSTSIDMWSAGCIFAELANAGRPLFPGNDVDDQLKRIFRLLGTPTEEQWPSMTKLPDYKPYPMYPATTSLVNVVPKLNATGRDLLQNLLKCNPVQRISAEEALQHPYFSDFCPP", "sequence (Q15078 99-307 partner limits assumed)": "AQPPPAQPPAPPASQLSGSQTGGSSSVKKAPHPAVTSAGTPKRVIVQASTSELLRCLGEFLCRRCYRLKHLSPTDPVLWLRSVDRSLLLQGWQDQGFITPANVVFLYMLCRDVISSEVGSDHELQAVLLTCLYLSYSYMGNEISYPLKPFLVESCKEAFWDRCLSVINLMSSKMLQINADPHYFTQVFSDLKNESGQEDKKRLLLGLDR", "experiment": "Inhibition of CDK5/p35NCK (unknown origin) at 100 nM preincubated for 20 mins followed by [gamma-33P]ATP addition measured after 120 mins in presence of ATP by Hot-SpotSM kinase assay relative to control", "assay_type": "protein-complex assay", "settings": "time 140.0 min"}, "Histone deacetylase 2": {"biological_target": "Histone deacetylase 2 (Homo sapiens, UniProt Q92769)", "sequence (Q92769 whole entry)": "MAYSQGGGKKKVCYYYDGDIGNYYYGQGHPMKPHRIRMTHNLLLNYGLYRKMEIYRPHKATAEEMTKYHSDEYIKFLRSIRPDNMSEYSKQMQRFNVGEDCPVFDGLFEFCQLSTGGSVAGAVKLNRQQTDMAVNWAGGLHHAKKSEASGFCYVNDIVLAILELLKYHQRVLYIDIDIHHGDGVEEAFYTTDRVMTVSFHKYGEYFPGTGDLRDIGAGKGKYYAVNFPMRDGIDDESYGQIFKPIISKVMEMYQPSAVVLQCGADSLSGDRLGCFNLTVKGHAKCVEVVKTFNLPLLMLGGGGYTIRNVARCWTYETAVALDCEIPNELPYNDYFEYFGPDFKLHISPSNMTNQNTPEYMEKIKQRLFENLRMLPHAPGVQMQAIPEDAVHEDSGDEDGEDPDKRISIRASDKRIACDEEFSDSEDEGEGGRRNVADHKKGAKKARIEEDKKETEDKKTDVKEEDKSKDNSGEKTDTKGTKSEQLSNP", "experiment": "Inhibition of HDAC2 in human nuclear extract using Ac-Arg-Gly-Lys(Ac)-AMC as substrate at 1 uM incubated overnight by fluorescence based assay relative to control", "assay_type": "subcellular", "settings": "HeLa, Nucleus"}}}
{"smiles": "Nc1cc(F)ccc1NC(=O)c1ccc(CNC(=O)/C=C/c2cccnc2)cc1", "note": "[TUCIDINOSTAT]", "values": [{"measurement": "inhibition", "setting": "U-937 [1]", "result": "Dose-Dependent Effect"}, {"measurement": "Activity", "setting": "HL-60 [2]", "result": 8.11, "unit": "%"}, {"measurement": "Activity", "setting": "U-937 [3]", "result": 5.7, "unit": "%"}, {"measurement": "viability at 1.2 µM", "setting": "HL-60 [4]", "result": 84.7, "unit": "%"}, {"measurement": "Activity", "setting": "HL-60 [5]", "result": 3.72, "unit": "%"}, {"measurement": "IC50", "setting": "Kasumi 1", "result": "> 10000", "unit": "nM"}, {"measurement": "Activity", "setting": "U-937 [6]", "result": 2.67, "unit": "%"}, {"measurement": "Activity", "setting": "[7]", "result": 77.8, "unit": "%"}, {"measurement": "Activity", "setting": "U-937 [8]", "result": 1.65, "unit": "%"}, {"measurement": "Activity", "setting": "HL-60 [9]", "result": 53.5, "unit": "%"}, {"measurement": "IC50", "setting": "U-937 [10]", "result": 4660, "unit": "nM"}, {"measurement": "inhibition", "setting": "HL-60 [11]", "result": "Dose-Dependent Effect"}, {"measurement": "IC50", "setting": "HL-60 [12]", "result": 3110, "unit": "nM"}, {"measurement": "IC50", "setting": "[13]", "result": 5570, "unit": "nM"}]}
{"smiles": "Nc1ccccc1NC(=O)c1ccc(NC(=O)c2n[nH]cc2NC(=O)c2c(Cl)cccc2Cl)cc1", "values": [{"measurement": "inhibition", "setting": "U-937 [1]", "result": "Dose-Dependent Effect"}, {"measurement": "inhibition", "setting": "[14]", "result": 31, "unit": "%"}, {"measurement": "inhibition", "setting": "[15]", "result": 53.7, "unit": "%"}, {"measurement": "Activity", "setting": "HL-60 [16]", "result": "Dose-Dependent Effect"}, {"measurement": "inhibition", "setting": "[17]", "result": 72.8, "unit": "%"}, {"measurement": "Activity", "setting": "U-937 [18]", "result": 88.7, "unit": "%"}, {"measurement": "viability at 2 µM", "setting": "U-937 [19]", "result": 5.82, "unit": "%"}, {"measurement": "Activity", "setting": "U-937 [20]", "result": 2.9, "unit": "%"}, {"measurement": "IC50", "setting": "Kasumi 1", "result": 890, "unit": "nM"}, {"measurement": "CL/F", "setting": "[21]", "result": 28.8, "unit": "mL/min/kg"}, {"measurement": "inhibition", "setting": "[22]", "result": 100, "unit": "%"}, {"measurement": "inhibition", "setting": "[23]", "result": 100, "unit": "%"}, {"measurement": "Activity", "setting": "U-937 [24]", "result": 16, "unit": "%"}, {"measurement": "Activity", "setting": "HL-60 [25]", "result": 62.2, "unit": "%"}, {"measurement": "inhibition", "setting": "[26]", "result": 27.6, "unit": "%"}, {"measurement": "Tmax", "setting": "[27]", "result": 45, "unit": "min"}, {"measurement": "inhibition", "setting": "[28]", "result": 35.4, "unit": "%"}, {"measurement": "IC50", "setting": "U-937 [10]", "result": 720, "unit": "nM"}, {"measurement": "inhibition", "setting": "[29]", "result": 90.7, "unit": "%"}, {"measurement": "inhibition", "setting": "HL-60 [11]", "result": "Dose-Dependent Effect"}, {"measurement": "inhibition", "setting": "Histone deacetylase 2", "result": 100, "unit": "%"}, {"measurement": "IC50", "setting": "HL-60 [12]", "result": 1430, "unit": "nM"}, {"measurement": "IC50", "setting": "[13]", "result": 1630, "unit": "nM"}]}
